# In patent US11214803B2, “Modulators of YAP1 expression” (Ionis Pharmaceuticals, Inc., priority 2019, dated 2022):
# pIC50: −log10 of the molar value. Strand notation (5' to 3'): a small letter for the sugar, then the base; units joined by * are phosphorothioate-linked, units joined directly phosphodiester-linked; [ ] holds rarer units or linkages, { } end groups; capitals alone tell only the bases. k = constrained ethyl (cEt); [5mC] = 5-methylcytosine; d = 2'-deoxy (DNA)
# Test system: Yap1 mRNA
# Experiment: Dose-dependent inhibition of human Yap1 in A-431 cells (Example 7, 10,000 cells per well, RTS36584)
# Assay type: cell-based
# Settings: free uptake
# How it was run: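 A-431 cells at 10,000 per well received modified oligonucleotides by free uptake at several doses. After about 48 hours, Yap1 mRNA was quantified with primer-probe set RTS36584, normalized to RIBOGREEN total RNA and expressed as % untreated control. IC50 came from linear regression on a log/linear plot.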
# [1] = Table 59, 15.6 nM, A-431 cells 10,000 cells per well, 48 hours
# [2] = Table 59, 62.5 nM, A-431 cells 10,000 cells per well, 48 hours
# [3] = Table 59, 4000.00 nM, A-431 cells 10,000 cells per well, 48 hours
# [4] = Table 59, A-431 cells 10,000 cells per well
# [5] = Table 57, 15.6 nM, A-431 cells 10,000 cells per well, 48 hours
# [6] = Table 57, 62.5 nM, A-431 cells 10,000 cells per well, 48 hours
# [7] = Table 57, 4000.00 nM, A-431 cells 10,000 cells per well, 48 hours
# [8] = Table 57, A-431 cells 10,000 cells per well
# [9] = Table 58, 15.6 nM, A-431 cells 10,000 cells per well, 48 hours
# [10] = Table 58, 62.5 nM, A-431 cells 10,000 cells per well, 48 hours
# [11] = Table 58, 4000.00 nM, A-431 cells 10,000 cells per well, 48 hours
# [12] = Table 58, A-431 cells 10,000 cells per well
# [13] = 15.6 nM, A-431 cells, 10,000 cells per well, approximately 48 hours
# [14] = 62.5 nM, A-431 cells, 10,000 cells per well, approximately 48 hours
# [15] = 4000.00 nM, A-431 cells, 10,000 cells per well, approximately 48 hours
# [16] = A-431 cells, approximately 48 hours, linear regression on log/linear plot
substance,measurement,setting,value
958572 (kA*kT*kT*dA*dT*dA*dG*dG*d[5mC]*dA*d[5mC]*dT*d[5mC]*k[5mC]*kT*kT; antisense) [compound 958572],"Yap1 mRNA, % UTC",[1],83 % UTC
same,"Yap1 mRNA, % UTC",[2],77 % UTC
same,"Yap1 mRNA, % UTC",[3],22 % UTC
same,pIC50,[4],6.70
958531 (kG*kT*kA*dG*dG*dA*dG*d[5mC]*dA*dA*dG*dT*d[5mC]*kT*kT*kG; antisense) [compound 958531],"Yap1 mRNA, % UTC",[5],92 % UTC
same,"Yap1 mRNA, % UTC",[6],63 % UTC
same,"Yap1 mRNA, % UTC",[7],13 % UTC
same,pIC50,[8],7.00
958486 (kT*kT*kA*dG*dA*dG*d[5mC]*d[5mC]*dA*dA*d[5mC]*dT*dG*kT*kG*kA; antisense) [compound 958486],"Yap1 mRNA, % UTC",[5],87 % UTC
same,"Yap1 mRNA, % UTC",[6],73 % UTC
same,"Yap1 mRNA, % UTC",[7],22 % UTC
same,pIC50,[8],6.70
958542 (kT*kA*kT*dA*dG*dT*dA*dT*dT*d[5mC]*dT*dA*dT*k[5mC]*k[5mC]*kA; antisense) [compound 958542],"Yap1 mRNA, % UTC",[9],90 % UTC
same,"Yap1 mRNA, % UTC",[10],70 % UTC
same,"Yap1 mRNA, % UTC",[11],17 % UTC
same,pIC50,[12],7.00
958491 (kA*k[5mC]*kT*dA*dA*dA*dT*dG*d[5mC]*dT*dG*dT*dG*kA*k[5mC]*kA; antisense) [compound 958491],"Yap1 mRNA, % UTC",[5],94 % UTC
same,"Yap1 mRNA, % UTC",[6],65 % UTC
same,"Yap1 mRNA, % UTC",[7],10 % UTC
same,pIC50,[8],7.00
958466 (kG*kT*k[5mC]*dA*dT*dT*dA*dA*dG*dG*dA*dT*dG*kT*k[5mC]*kA; antisense) [compound 958466],"Yap1 mRNA, % UTC",[5],84 % UTC
same,"Yap1 mRNA, % UTC",[6],81 % UTC
same,"Yap1 mRNA, % UTC",[7],30 % UTC
same,pIC50,[8],6.52
958535 (kG*kG*kG*dT*d[5mC]*dA*dA*dT*dT*dT*dT*d[5mC]*dA*kG*k[5mC]*kA; antisense) [compound 958535],"Yap1 mRNA, % UTC",[13],98 % UTC
same,"Yap1 mRNA, % UTC",[14],64 % UTC
same,"Yap1 mRNA, % UTC",[15],19 % UTC
same,pIC50,[16],6.70
958819 (kT*kG*k[5mC]*dT*dT*d[5mC]*dA*dA*d[5mC]*dA*dT*dT*dG*kT*kT*k[5mC]; antisense) [compound 958819],"Yap1 mRNA, % UTC",[13],79 % UTC
same,"Yap1 mRNA, % UTC",[14],63 % UTC
same,"Yap1 mRNA, % UTC",[15],19 % UTC
same,pIC50,[16],7.00
958595 (k[5mC]*k[5mC]*kA*d[5mC]*dA*dT*d[5mC]*dA*dA*dG*dG*d[5mC]*dT*kA*kT*kG; antisense) [compound 958595],"Yap1 mRNA, % UTC",[13],83 % UTC
same,"Yap1 mRNA, % UTC",[14],57 % UTC
same,"Yap1 mRNA, % UTC",[15],16 % UTC
same,pIC50,[16],7.00
958600 (kG*kT*kA*dG*dA*dT*d[5mC]*dT*dA*dA*dG*dA*dA*kG*k[5mC]*k[5mC]; antisense) [compound 958600],"Yap1 mRNA, % UTC",[13],69 % UTC
same,"Yap1 mRNA, % UTC",[14],44 % UTC
same,"Yap1 mRNA, % UTC",[15],14 % UTC
same,pIC50,[16],7.30
958578 (k[5mC]*kT*kT*dA*dA*dT*d[5mC]*dT*dG*dT*dG*dG*d[5mC]*kT*kA*k[5mC]; antisense) [compound 958578],"Yap1 mRNA, % UTC","Table 60, 15.6 nM, A-431 cells 10,000 cells per well, 48 hours",78 % UTC
same,"Yap1 mRNA, % UTC","Table 60, 62.5 nM, A-431 cells 10,000 cells per well, 48 hours",52 % UTC
same,"Yap1 mRNA, % UTC","Table 60, 4000.00 nM, A-431 cells 10,000 cells per well, 48 hours",10 % UTC
same,pIC50,"Table 60, A-431 cells 10,000 cells per well",7.00
958807 (kT*k[5mC]*kA*dT*dT*dG*dT*dA*dG*dT*d[5mC]*dT*dG*kT*k[5mC]*kT; antisense) [compound 958807],"Yap1 mRNA, % UTC",[9],92 % UTC
same,"Yap1 mRNA, % UTC",[10],65 % UTC
same,"Yap1 mRNA, % UTC",[11],10 % UTC
same,pIC50,[12],7.00
958500 (kT*k[5mC]*kT*dA*dT*dA*dT*dT*dA*dG*dA*dG*dT*kA*kT*kG) [compound 958500],"Yap1 mRNA, % UTC",[13],91 % UTC
same,"Yap1 mRNA, % UTC",[14],63 % UTC
same,"Yap1 mRNA, % UTC",[15],16 % UTC
same,pIC50,[16],7.00
958737 (kG*kG*kA*dA*dT*dA*d[5mC]*dA*dA*dG*d[5mC]*d[5mC]*d[5mC]*kG*kA*kG; antisense) [compound 958737],"Yap1 mRNA, % UTC",[1],104 % UTC
same,"Yap1 mRNA, % UTC",[2],92 % UTC
same,"Yap1 mRNA, % UTC",[3],29 % UTC
same,pIC50,[4],6.40
